Drawing on US20230399342A1 (Incyte Corporation, priority 2022, published 2023), this text covers IC50 for six molecules.

As usually defined, the IC50 is the concentration at which inhibition is half-maximal.

In one assay the target is DGKζ (Homo sapiens (Human), UniProt Q13574). Put plainly: In vitro DGKζ inhibition assay (ADP-Glo). The assay is classed as biochemical. The note with it: His-tagged human recombinant enzyme, 0.4 nM DGK, 30 μM ATP, 20 μM DLG, 90 minute incubation. In outline:
(§1)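 His-tagged human DGKα (0.1 nM, 50 μM ATP) or DGKζ (0.4 nM, 30 μM ATP), each with 20 μM DLG, in Tris pH 7.5 buffer with CHAPS, Mg2+, Ca2+.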
A general note: ADP-Glo turns the ADP formed in a reaction into a luminescent signal.

A further assay deals with DGKα (Homo sapiens (Human), UniProt P23743). Put plainly: In vitro DGKα inhibition assay (ADP-Glo). The assay is classed as biochemical. The note with it: His-tagged human recombinant enzyme, 0.1 nM DGKα, 50 μM ATP, 20 μM DLG, 90 minute incubation. In outline:
as §1

Molecules are shown by their SMILES.

DGKζ, sequence (Q13574 whole entry): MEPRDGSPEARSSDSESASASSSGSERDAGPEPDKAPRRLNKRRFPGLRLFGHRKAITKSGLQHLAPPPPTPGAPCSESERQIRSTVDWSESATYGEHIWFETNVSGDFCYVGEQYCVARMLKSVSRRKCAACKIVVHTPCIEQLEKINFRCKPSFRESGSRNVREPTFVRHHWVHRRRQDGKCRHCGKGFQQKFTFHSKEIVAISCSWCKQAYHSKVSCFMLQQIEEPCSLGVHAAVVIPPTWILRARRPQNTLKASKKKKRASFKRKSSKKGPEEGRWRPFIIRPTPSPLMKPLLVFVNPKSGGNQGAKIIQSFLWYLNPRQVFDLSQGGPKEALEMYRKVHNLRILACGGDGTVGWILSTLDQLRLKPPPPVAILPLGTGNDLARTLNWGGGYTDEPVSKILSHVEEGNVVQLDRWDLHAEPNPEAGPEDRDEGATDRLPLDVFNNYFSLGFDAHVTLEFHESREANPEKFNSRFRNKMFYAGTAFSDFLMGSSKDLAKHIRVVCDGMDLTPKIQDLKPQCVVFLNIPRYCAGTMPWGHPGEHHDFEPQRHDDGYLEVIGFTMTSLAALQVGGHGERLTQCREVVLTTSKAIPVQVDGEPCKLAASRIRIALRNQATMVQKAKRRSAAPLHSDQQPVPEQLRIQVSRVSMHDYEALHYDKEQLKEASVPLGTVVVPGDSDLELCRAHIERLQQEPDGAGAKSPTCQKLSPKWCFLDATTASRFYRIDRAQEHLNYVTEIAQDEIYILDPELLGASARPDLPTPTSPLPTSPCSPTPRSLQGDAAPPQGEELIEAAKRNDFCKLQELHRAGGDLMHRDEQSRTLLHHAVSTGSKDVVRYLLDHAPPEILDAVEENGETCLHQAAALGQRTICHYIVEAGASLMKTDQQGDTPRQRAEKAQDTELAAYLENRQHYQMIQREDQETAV
DGKα, sequence (P23743 whole entry): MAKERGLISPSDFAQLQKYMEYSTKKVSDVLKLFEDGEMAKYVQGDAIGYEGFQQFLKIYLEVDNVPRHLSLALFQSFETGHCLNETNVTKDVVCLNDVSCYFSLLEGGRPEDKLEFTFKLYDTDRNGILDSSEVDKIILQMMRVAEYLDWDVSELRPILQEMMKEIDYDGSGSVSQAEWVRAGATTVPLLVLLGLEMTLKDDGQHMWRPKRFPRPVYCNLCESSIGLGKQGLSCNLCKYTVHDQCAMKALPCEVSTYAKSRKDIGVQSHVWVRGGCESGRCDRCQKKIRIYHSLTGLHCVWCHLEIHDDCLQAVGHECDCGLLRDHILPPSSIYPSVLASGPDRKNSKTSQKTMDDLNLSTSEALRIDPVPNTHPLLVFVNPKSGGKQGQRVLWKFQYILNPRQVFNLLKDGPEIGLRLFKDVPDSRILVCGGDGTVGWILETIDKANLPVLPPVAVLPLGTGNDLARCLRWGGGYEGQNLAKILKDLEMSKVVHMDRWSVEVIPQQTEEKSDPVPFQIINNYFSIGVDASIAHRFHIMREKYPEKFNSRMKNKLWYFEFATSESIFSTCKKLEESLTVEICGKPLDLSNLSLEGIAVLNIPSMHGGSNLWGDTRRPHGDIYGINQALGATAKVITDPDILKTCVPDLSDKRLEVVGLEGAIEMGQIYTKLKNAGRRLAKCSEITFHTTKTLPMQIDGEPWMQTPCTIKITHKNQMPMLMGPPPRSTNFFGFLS

Regarding `Cc1nc2c(N3C[C@@H](C)N(C(c4ccc(C(F)(F)F)cc4)c4ccc(C(F)(F)F)cc4)C[C@@H]3C)nc3nncn3c2n1C[C@@H]1CCCO1` [Example 134, 4-((2S,5R)-4-(Bis(4-(trifluoromethyl)phenyl)methyl)-2,5-dimethylpiperazin-1-yl)-2-methyl-1-(((S)-tetrahydrofuran-2-yl)methyl)-1H-[1,2,4]triazolo[3,4-b]purine], the IC50 on DGKζ and on DGKα was ≤ 20 nM in each case.

With `Cc1nc2c(N3C[C@@H](C)N(C(c4ccc(C(F)F)c(F)c4)C4CC(F)(F)C4)C[C@@H]3C)nc3nncn3c2n1C[C@@H]1CCCO1` (stereo partly drawn) [Example 135, 4-((2S,5R)-4-((3,3-Difluorocyclobutyl)(4-(difluoromethyl)-3-fluorophenyl)methyl)-2,5-dimethylpiperazin-1-yl)-2-methyl-1-(((S)-tetrahydrofuran-2-yl)methyl)-1H-[1,2,4]triazolo[3,4-b]purine], the IC50 on DGKζ and at DGKα was ≤ 20 nM in each case.

With `C[C@@H]1CN(c2nc3nncn3c3c2ncn3CCN(C)C)[C@@H](C)CN1C(c1ccc(Cl)c(F)c1)C1CC(F)(F)C1` (stereo partly drawn) [Example 136, 2-(4-((2S,5R)-4-((4-Chloro-3-fluorophenyl)(3,3-difluorocyclobutyl)methyl)-2,5-dimethylpiperazin-1-yl)-1H-[1,2,4]triazolo[3,4-b]purin-1-yl)-N,N-dimethylethan-1-amine], the IC50 at DGKζ and on DGKα was ≤ 20 nM each time.

As to `Cc1nc2c(N3C[C@@H](CO)N(C(c4ccc(Cl)cc4)c4ccc(Cl)cc4)C[C@@H]3C)nc3nncn3c2n1C[C@@H]1CCCO1` [Example 137, ((2S,5S)-1-(Bis(4-chlorophenyl)methyl)-5-methyl-4-(2-methyl-1-(((S)-tetrahydrofuran-2-yl)methyl)-1H-[1,2,4]triazolo[3,4-b]purin-4-yl)piperazin-2-yl)methanol], the IC50 on DGKζ and on DGKα was ≤ 20 nM in each case.

As to `Cc1nc2c(N3C[C@@H](C)N([C@H](c4ccc(Br)cc4)C(C)C)C[C@@H]3C)nc3nncn3c2n1C[C@@H]1CCCO1` [Example 138, 4-((2S,5R)-4-((S)-1-(4-Bromophenyl)-2-methylpropyl)-2,5-dimethylpiperazin-1-yl)-2-methyl-1-(((S)-tetrahydrofuran-2-yl)methyl)-1H-[1,2,4]triazolo[3,4-b]purine], the IC50 at DGKζ and at DGKα was ≤ 20 nM each time.

`Cc1nc2c(N3C[C@@H](C)N([C@@H](c4ccc(Br)cc4)C(C)C)C[C@@H]3C)nc3nncn3c2n1C[C@@H]1CCCO1` [Example 139, 4-((2S,5R)-4-((R)-1-(4-bromophenyl)-2-methylpropyl)-2,5-dimethylpiperazin-1-yl)-2-methyl-1-(((S)-tetrahydrofuran-2-yl)methyl)-1H-[1,2,4]triazolo[3,4-b]purine]: the IC50 on DGKζ and on DGKα was ≤ 20 nM throughout.
